Experiments:
Assay type in all cases: cell-based
Lamprey RPE65 = target: T1, Lamprey RPE65 (Petromyzon marinus, UniProt L0ATZ0); test: HEK293-F minimal visual cycle assay, normal-phase HPLC of saponified retinoids; details: co-expressed lamprey LRATb or bovine LRAT and bovine CRALBP; 2.5 µM all-trans retinol fed for 5 h; direct substrate is the retinyl ester formed in the cells
T1 construct: pVITRO2 with bovine CRALBP, expressed in HEK293-F cells with LRAT
T1 sequence (L0ATZ0 1-537): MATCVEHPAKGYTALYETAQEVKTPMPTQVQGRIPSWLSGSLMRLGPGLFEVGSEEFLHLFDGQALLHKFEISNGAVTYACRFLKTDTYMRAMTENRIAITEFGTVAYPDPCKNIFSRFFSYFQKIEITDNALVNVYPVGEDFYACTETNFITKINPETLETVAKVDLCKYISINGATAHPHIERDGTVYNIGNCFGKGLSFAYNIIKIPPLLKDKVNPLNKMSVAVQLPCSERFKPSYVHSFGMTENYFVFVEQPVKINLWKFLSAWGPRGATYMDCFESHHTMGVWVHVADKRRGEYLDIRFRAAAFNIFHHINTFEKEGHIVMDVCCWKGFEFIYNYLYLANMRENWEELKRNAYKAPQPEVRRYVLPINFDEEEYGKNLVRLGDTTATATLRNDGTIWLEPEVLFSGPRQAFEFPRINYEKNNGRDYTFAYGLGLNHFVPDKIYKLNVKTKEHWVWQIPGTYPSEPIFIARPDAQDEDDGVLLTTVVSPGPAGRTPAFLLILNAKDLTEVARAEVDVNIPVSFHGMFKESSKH

[1] = target: T2, Ciona BCMOb (Ci-BCMO1; ci-BCO) (Ciona intestinalis, UniProt Q2PE72); test: lycopene loss in lycopene-accumulating E. coli, reverse-phase HPLC; details: arabinose induction; no retinal detected; printed as β-carotene or lycopene
T2 construct: expressed in carotenoid-accumulating E. coli
T2 sequence (Q2PE72 1-524): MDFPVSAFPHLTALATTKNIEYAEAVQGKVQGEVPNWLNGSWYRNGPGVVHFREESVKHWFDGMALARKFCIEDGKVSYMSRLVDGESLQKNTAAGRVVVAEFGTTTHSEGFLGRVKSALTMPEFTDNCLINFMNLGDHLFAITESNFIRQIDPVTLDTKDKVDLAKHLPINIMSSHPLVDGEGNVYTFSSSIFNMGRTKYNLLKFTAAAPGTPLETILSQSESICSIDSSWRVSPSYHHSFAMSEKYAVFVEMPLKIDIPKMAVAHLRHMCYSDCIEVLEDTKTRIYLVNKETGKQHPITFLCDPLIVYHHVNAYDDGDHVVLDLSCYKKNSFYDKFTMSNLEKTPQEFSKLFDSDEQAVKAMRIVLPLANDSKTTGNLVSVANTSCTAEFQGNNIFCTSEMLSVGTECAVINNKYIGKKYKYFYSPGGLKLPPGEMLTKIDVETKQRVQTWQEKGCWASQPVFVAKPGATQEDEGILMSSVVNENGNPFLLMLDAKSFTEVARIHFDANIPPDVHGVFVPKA

Ciona BCMOa (Ci-RPE65) [2] = target: T3, Ciona BCMOa (Ci-RPE65) (Ciona intestinalis, UniProt Q2PE71); test: as above; details: arabinose induction, 18 h; no retinal detected; data not shown
T3 construct: ORF from synthetic pUC57/ciBCMOa (Genscript), cloned in pBadTOPO, expressed in carotenoid-accumulating E. coli
T3 sequence (Q2PE71 1-553): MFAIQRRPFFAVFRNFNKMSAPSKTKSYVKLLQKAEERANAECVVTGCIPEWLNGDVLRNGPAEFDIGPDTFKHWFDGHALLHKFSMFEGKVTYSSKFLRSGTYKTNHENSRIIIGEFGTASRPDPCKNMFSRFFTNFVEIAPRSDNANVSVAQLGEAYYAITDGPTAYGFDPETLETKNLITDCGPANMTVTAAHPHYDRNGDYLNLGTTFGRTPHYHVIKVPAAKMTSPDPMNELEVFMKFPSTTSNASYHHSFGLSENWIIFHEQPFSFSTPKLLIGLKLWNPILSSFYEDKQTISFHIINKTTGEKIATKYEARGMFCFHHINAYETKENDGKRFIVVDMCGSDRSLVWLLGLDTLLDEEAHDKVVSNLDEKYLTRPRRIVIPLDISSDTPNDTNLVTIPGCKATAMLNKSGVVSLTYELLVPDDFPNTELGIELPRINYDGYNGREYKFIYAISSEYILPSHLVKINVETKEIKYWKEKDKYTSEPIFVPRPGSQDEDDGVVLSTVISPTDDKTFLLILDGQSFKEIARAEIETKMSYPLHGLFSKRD

Lamprey LRATb = target: T4, Lamprey LRATb (Petromyzon marinus, UniProt A0AAJ7TIF3); test: retinol esterification in HEK293-F cells, HPLC, retinyl esters as % of total retinoids; details: with 50 µM A922500 to block endogenous DGAT1; all-trans retinol added to cells
T4 construct: gene LOC116947134; full-length ORF cloned from adult female lamprey RPE (852 bp PCR product), 7-glycine tract at aa 160-166; pVITRO3, expressed in HEK293-F cells
T4 sequence (A0AAJ7TIF3 1-274): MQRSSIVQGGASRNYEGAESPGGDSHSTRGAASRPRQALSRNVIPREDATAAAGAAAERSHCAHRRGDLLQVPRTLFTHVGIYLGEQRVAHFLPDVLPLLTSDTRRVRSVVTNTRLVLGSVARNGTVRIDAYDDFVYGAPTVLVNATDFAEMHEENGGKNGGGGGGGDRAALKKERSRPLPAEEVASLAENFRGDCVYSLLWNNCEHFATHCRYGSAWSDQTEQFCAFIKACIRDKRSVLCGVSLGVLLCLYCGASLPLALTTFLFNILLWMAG

Ciona BCMOa (Ci-RPE65) [3] = target: T3, Ciona BCMOa (Ci-RPE65); test: β-carotene loss in β-carotene-accumulating E. coli, reverse-phase HPLC; details: arabinose induction, 18 h; no retinal detected
[4] = target: T2, Ciona BCMOb (Ci-BCMO1; ci-BCO); test: as above; details: arabinose induction; no retinal detected

CC1=C(/C=C/C(C)=C/C=C\C(C)=C\CO)C(C)(C)CCC1 [11-cis retinol]
HEK293-F minimal visual cycle assay, normal-phase HPLC of saponified retinoids (Lamprey RPE65): Cells transfected with lamprey RPE65 and lamprey LRATb were also able to produce 11-cis retinol

CC(C)=CCC/C(C)=C/C=C/C(C)=C/C=C/C(C)=C/C=C/C=C(C)/C=C/C=C(C)/C=C/C=C(\C)CCC=C(C)C [lycopene]
lycopene loss in lycopene-accumulating E. coli, reverse-phase HPLC [1]: Quantification of β-carotene or lycopene in induced cell culture transformed with Ciona BCMOb (ci-BCO) | lycopene loss in lycopene-accumulating E. coli, reverse-phase HPLC (Ciona BCMOa (Ci-RPE65) [2]): the amount of lycopene (data not shown) or β-carotene in induced cells decreased significantly

CC1=C(/C=C/C(C)=C/C=C/C(C)=C/CO)C(C)(C)CCC1 [all-trans retinol]
retinol esterification in HEK293-F cells, HPLC, retinyl esters as % of total ret (Lamprey LRATb): Catalytic activity of Lamprey LRATb in HEK293F cells in the presence of specific DGAT1 inhibitor

CC1=C(/C=C/C(C)=C/C=C/C(C)=C/C=C/C=C(C)/C=C/C=C(C)/C=C/C2=C(C)CCCC2(C)C)C(C)(C)CCC1 [β-carotene]
β-carotene loss in β-carotene-accumulating E. coli, reverse-phase HPLC (Ciona BCMOa (Ci-RPE65) [3]): the amount of lycopene (data not shown) or β-carotene in induced cells decreased significantly | β-carotene loss in β-carotene-accumulating E. coli, reverse-phase HPLC [4]: Ciona BCMOb (ci-BCO) also demonstrated significant carotenoid cleavage activity

— PMC3507948, “Origin and Evolution of Retinoid Isomerization Machinery in Vertebrate Visual Cycle: Hint from Jawless Vertebrates” (PLoS ONE, 2012)
